Ends that are not written are not given here.
Key:
Gram-negative bacteria = test: Geometric mean MIC and therapeutic index, Gram-negative; type: cell-based; details: geometric mean of MICs
horse red blood cells = test: Haemolysis assay; type: cell-based; details: concentration inducing 10% haemolysis of horse erythrocytes; 4% (v/v) in PBS, 2 h, 37 °C, absorbance 570 nm; no haemolysis at maximum testing concentration (128 μM) recorded as 256 μM
Procedure: The peptide cytotoxicity against mammalian erythrocytes was evaluated by haemolysis assay on horse red blood cells (E&O Laboratories Ltd., Falkirk, UK). Fresh horse blood was washed three times with PBS and resuspended to a final concentration of 4% (v/v) in PBS. The diluted blood suspension was then mixed with peptide solutions at varying concentrations and incubated for 2 h at 37 °C. Red blood cell suspensions treated with 0.1% Triton X-100 and PBS were used as controls. The Triton X-100-treated suspension was the positive control (for 100% haemolysis), while the PBS-treated suspension was the blank control. Following incubation, the mixtures were centrifuged at 1000× g for 10 min to separate erythrocytes from the supernatant. The absorbance of the supernatants was detected at 570 nm. The percentage haemolysis was calculated by following the equationPercentage Haemolysis = (AbsSample − AbsBlank)/(AbsPositive − AbsBlank) × 100%

[1] = test system: Enterococcus faecalis NCTC 12697; type: cell-based; details: NCTC 12697
[2] = test system: Staphylococcus aureus ATCC 6538; type: cell-based; details: ATCC 6538
Procedure: (§1) The antimicrobial activities of the peptides were evaluated by determining their minimal inhibitory concentration (MIC) and minimal bactericidal concentration (MBC) values following reported protocols [20]. The tested microorganisms included seven Gram-negative bacterial strains (Escherichia coli ATCC 8739, E. coli ATCC-BAA 2340, E. coli NCTC 13846, Klebsiella pneumoniae ATCC 43816, K. pneumoniae ATCC BAA-2342, Pseudomonas aeruginosa ATCC 9027, Acinetobacter baumannii ATCC BAA-747), three Gram-positive bacterial strains (Staphylococcus aureus ATCC 6538, Enterococcus faecalis NCTC 12697, MRSA NCTC 12493, and the fungal strain Candida albicans ATCC 10231. For the assay, each bacterial strain was cultured overnight at 37 °C in 100 mL of medium in a flask. The cultures were then subcultured to reach the logarithmic growth phase and diluted to 5 × 10^5 CFU/mL. Peptide samples were serially diluted two-fold in microplates, with concentrations ranging from 128 μM to 1 μM. The diluted bacterial suspensions were mixed with the peptide solutions and incubated overnight at 37 °C. The MIC values were determined by measuring the absorbance of each well using a Synergy HT plate reader (Agilent, Cheshire, UK). For MBC determination, aliquots from wells showing no visible growth were inoculated onto agar plates to assess bacterial viability. Each experiment was repeated independently three times and conducted in three independent replicates.

E. coli NCTC 13846 = type: cell-based, Escherichia coli
Procedure: as §1

[3] = test system: Escherichia coli ATCC 8739; type: cell-based; details: ATCC 8739
Procedure: as §1

[4] = test system: Klebsiella pneumoniae ATCC 43816; type: cell-based; details: ATCC 43816
Procedure: as §1

E. coli ATCC BAA-2340 = type: cell-based, Escherichia coli
Procedure: as §1

E. coli (ATCC-BAA 2340) = type: cell-based, Escherichia coli; details: ATCC-BAA 2340
Procedure: The peptide sensitivity was determined in different salt- and serum-containing environments. Bacterial strains were prepared following the MIC detection protocol described previously. To evaluate peptide sensitivity under physiological conditions, various concentrations of salt ions (150 mM NaCl, 4.5 mM KCl, 2 mM CaCl2, 1 mM MgCl2, 8 µM ZnCl2, 6 µM NH4Cl, or 4 µM FeCl3) and serum (10% FBS) were prepared in McCartney bottles prior to the addition of bacterial suspensions. The subcultured bacterial suspensions were then introduced to these modified media conditions. For MIC determination, the treated bacterial suspensions were diluted and dispensed into 96-well plates containing peptide solutions at graded concentrations. This assay allowed for the detection of potential alterations in MIC values, serving as an indicator of peptide sensitivity under different physiological conditions. All experiments were independently repeated three times, each with three replicates.

[5] = test system: K. pneumoniae ATCC BAA-2342; type: cell-based, Klebsiella pneumoniae
Procedure: as §1

MRSA NCTC 12493 = type: cell-based, Staphylococcus aureus
Procedure: as §1

[6] = test system: Acinetobacter baumannii ATCC BAA-747; type: cell-based; details: ATCC BAA-747
Procedure: as §1

[7] = test system: Pseudomonas aeruginosa ATCC 9027; type: cell-based
Gram-positive bacteria = test: Geometric mean MIC and therapeutic index, Gram-positive; type: cell-based; details: geometric mean of MICs

GLLSVLGSLKKIVPHVVPWIAKKL-NH2 [Caerin 1.1-LC 11K.12K.19W]
GM MIC Gram-Negative (Gram-negative bacteria): 4 µM
HC10 (horse red blood cells): 10.5 µM
MBC, E. faecalis (NCTC 12697) [1]: 32 µM
MIC, E. faecalis (NCTC 12697) [1]: 16 µM
MBC, S. aureus (ATCC 6538) [2]: 2 µM
MIC, S. aureus (ATCC 6538) [2]: 2 µM
MBC, E. coli (NCTC 13846) (E. coli NCTC 13846): 4 µM
MIC, E. coli (NCTC 13846) (E. coli NCTC 13846): 2 µM
MBC, E. coli (ATCC 8739) [3]: 2 µM
MIC, E. coli (ATCC 8739) [3]: 2 µM
MBC, K. pneumoniae (ATCC 43816) [4]: 4 µM
MIC, K. pneumoniae (ATCC 43816) [4]: 4 µM
MBC, E. coli (ATCC BAA-2340) (E. coli ATCC BAA-2340): 2 µM
MIC, E. coli (ATCC BAA-2340) (E. coli ATCC BAA-2340): 2 µM
MIC, Ca^2+ (E. coli (ATCC-BAA 2340)): 8 µM
MIC, Control (E. coli (ATCC-BAA 2340)): 4 µM
MIC, FBS (E. coli (ATCC-BAA 2340)): 8 µM
MIC, Fe^3+ (E. coli (ATCC-BAA 2340)): 4 µM
MIC, K^+ (E. coli (ATCC-BAA 2340)): 4 µM
MIC, Mg^2+ (E. coli (ATCC-BAA 2340)): 4 µM
MIC, NH4^+ (E. coli (ATCC-BAA 2340)): 4 µM
MIC, Na^+ (E. coli (ATCC-BAA 2340)): 4 µM
MBC, K. pneumoniae (ATCC BAA-2342) [5]: 4 µM
MIC, K. pneumoniae (ATCC BAA-2342) [5]: 4 µM
MBC, MRSA (NCTC 12493) (MRSA NCTC 12493): 2 µM
MIC, MRSA (NCTC 12493) (MRSA NCTC 12493): 2 µM
MBC, A. baumannii (ATCC BAA-747) [6]: 4 µM
MIC, A. baumannii (ATCC BAA-747) [6]: 4 µM
MBC, P. aeruginosa (ATCC 9027) [7]: 4/4 µM
MIC, P. aeruginosa (ATCC 9027) [7]: 4/4 µM
GM MIC Gram-Positive (Gram-positive bacteria): 2.97 µM

GLLSVLGSLKLIVAHVVALIAEKL-NH2 [Caerin 1.1-LC 2P-2A]
GM MIC Gram-Negative (Gram-negative bacteria): 256 µM
HC10 (horse red blood cells): 256 µM
MBC, E. faecalis (NCTC 12697) [1]: >128 µM
MIC, E. faecalis (NCTC 12697) [1]: >128 µM
MBC, S. aureus (ATCC 6538) [2]: >128 µM
MIC, S. aureus (ATCC 6538) [2]: >128 µM
MBC, E. coli (NCTC 13846) (E. coli NCTC 13846): >128 µM
MIC, E. coli (NCTC 13846) (E. coli NCTC 13846): >128 µM
MBC, E. coli (ATCC 8739) [3]: >128 µM
MIC, E. coli (ATCC 8739) [3]: >128 µM
MBC, K. pneumoniae (ATCC 43816) [4]: >128 µM
MIC, K. pneumoniae (ATCC 43816) [4]: >128 µM
MBC, E. coli (ATCC BAA-2340) (E. coli ATCC BAA-2340): >128 µM
MIC, E. coli (ATCC BAA-2340) (E. coli ATCC BAA-2340): >128 µM
MBC, K. pneumoniae (ATCC BAA-2342) [5]: >128 µM
MIC, K. pneumoniae (ATCC BAA-2342) [5]: >128 µM
MBC, MRSA (NCTC 12493) (MRSA NCTC 12493): >128 µM
MIC, MRSA (NCTC 12493) (MRSA NCTC 12493): >128 µM
MBC, A. baumannii (ATCC BAA-747) [6]: >128 µM
MIC, A. baumannii (ATCC BAA-747) [6]: >128 µM
MBC, P. aeruginosa (ATCC 9027) [7]: >128 µM
MIC, P. aeruginosa (ATCC 9027) [7]: >128 µM
GM MIC Gram-Positive (Gram-positive bacteria): 256 µM

GLLSVLGSLKLIVPHWWPLIAEKL-NH2 [Caerin 1.1-LC PHWWP]
GM MIC Gram-Negative (Gram-negative bacteria): 105 µM
HC10 (horse red blood cells): 256 µM
MBC, E. faecalis (NCTC 12697) [1]: >128 µM
MIC, E. faecalis (NCTC 12697) [1]: >128 µM
MBC, S. aureus (ATCC 6538) [2]: >128 µM
MIC, S. aureus (ATCC 6538) [2]: >128 µM
MBC, E. coli (NCTC 13846) (E. coli NCTC 13846): 128 µM
MIC, E. coli (NCTC 13846) (E. coli NCTC 13846): 64 µM
MBC, E. coli (ATCC 8739) [3]: 64 µM
MIC, E. coli (ATCC 8739) [3]: 32 µM
MBC, K. pneumoniae (ATCC 43816) [4]: >128 µM
MIC, K. pneumoniae (ATCC 43816) [4]: >128 µM
MBC, E. coli (ATCC BAA-2340) (E. coli ATCC BAA-2340): 32 µM
MIC, E. coli (ATCC BAA-2340) (E. coli ATCC BAA-2340): 16 µM
MBC, K. pneumoniae (ATCC BAA-2342) [5]: >128 µM
MIC, K. pneumoniae (ATCC BAA-2342) [5]: >128 µM
MBC, MRSA (NCTC 12493) (MRSA NCTC 12493): >128 µM
MIC, MRSA (NCTC 12493) (MRSA NCTC 12493): >128 µM
MBC, A. baumannii (ATCC BAA-747) [6]: >128 µM
MIC, A. baumannii (ATCC BAA-747) [6]: >128 µM
MBC, P. aeruginosa (ATCC 9027) [7]: >128 µM
MIC, P. aeruginosa (ATCC 9027) [7]: >128 µM
GM MIC Gram-Positive (Gram-positive bacteria): 256 µM
